Literature values as cited in paper PMC8865417, “Receptor Interaction Profiles of 4-Alkoxy-3,5-Dimethoxy-Phenethylamines (Mescaline Derivatives) and Related Amphetamines” (Frontiers in Pharmacology, 2022).

What was measured:
Set-up in all cases: method as in Simmler et al. (2013)
hα2A adrenergic receptor = target: T1, hα2A adrenergic receptor (Homo sapiens, UniProt P08913); details: reference substance; ref Simmler et al. (2013); cited from earlier work
T1 construct: expressed in transfected cells; host or cells: Chinese hamster lung cells (membrane preparations)
T1 sequence (P08913 1-465): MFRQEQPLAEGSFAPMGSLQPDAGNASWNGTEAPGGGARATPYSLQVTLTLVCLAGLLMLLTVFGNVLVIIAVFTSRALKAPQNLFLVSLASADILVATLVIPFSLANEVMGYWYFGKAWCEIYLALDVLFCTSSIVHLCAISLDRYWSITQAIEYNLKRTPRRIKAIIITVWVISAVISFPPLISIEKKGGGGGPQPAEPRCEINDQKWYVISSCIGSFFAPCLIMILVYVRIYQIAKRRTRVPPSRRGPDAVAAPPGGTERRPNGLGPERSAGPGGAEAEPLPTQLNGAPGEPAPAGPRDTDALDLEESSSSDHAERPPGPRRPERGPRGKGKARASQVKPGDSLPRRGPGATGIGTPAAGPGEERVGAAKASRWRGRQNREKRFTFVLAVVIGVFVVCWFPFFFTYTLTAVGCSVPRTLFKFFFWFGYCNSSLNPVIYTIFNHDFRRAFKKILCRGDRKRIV

[1] = target: T2, dopaminergic hD2 receptor (Homo sapiens, UniProt P14416); details: reference substance; ref Simmler et al. (2013); cited from earlier work
T2 construct: expressed in transfected cells; host or cells: HEK 293 cells (membrane preparations)

rat TAAR1 = target: T3, rat TAAR1 (Rattus norvegicus, UniProt Q923Y9); details: reference substance; ref Simmler et al. (2013); read-out: rTAAR1 Ki; cited from earlier work
T3 construct: expressed in transfected cells; host or cells: HEK 293 cells (membrane preparations)

hα1A adrenergic receptor = target: T4, hα1A adrenergic receptor (Homo sapiens, UniProt P35348); details: reference substance; ref Simmler et al. (2013); cited from earlier work
T4 construct: expressed in transfected cells; host or cells: Chinese hamster ovary cells (membrane preparations)
T4 sequence (P35348 1-466): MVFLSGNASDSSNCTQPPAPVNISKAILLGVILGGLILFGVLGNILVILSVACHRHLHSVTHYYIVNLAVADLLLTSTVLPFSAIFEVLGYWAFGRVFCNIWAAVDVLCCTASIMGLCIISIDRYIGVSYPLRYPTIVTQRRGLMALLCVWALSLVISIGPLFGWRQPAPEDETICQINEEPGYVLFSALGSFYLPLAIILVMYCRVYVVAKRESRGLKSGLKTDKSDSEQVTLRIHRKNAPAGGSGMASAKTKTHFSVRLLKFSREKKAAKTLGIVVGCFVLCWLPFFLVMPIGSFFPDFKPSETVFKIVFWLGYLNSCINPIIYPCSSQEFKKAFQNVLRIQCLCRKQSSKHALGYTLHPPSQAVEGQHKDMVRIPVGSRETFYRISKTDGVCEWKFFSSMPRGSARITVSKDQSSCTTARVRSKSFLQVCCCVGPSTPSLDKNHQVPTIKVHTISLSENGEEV

mouse TAAR1 = target: T5, mouse TAAR1 (Mus musculus, UniProt Q923Y8); details: reference substance; ref Simmler et al. (2013); read-out: mTAAR1 Ki; cited from earlier work
T5 construct: expressed in transfected cells; host or cells: HEK 293 cells (membrane preparations)

hNET = target: T6, hNET (Homo sapiens, UniProt P23975); details: reference substance; ref Simmler et al. (2013); cited from earlier work
T6 construct: expressed in transfected cells; host or cells: HEK 293 cells (membrane preparations)

hDAT = target: T7, hDAT (Homo sapiens, UniProt Q01959); details: reference substance; ref Simmler et al. (2013); cited from earlier work
T7 construct: expressed in transfected cells; host or cells: HEK 293 cells (membrane preparations)

hSERT = target: T8, hSERT (Homo sapiens, UniProt P31645); details: reference substance; ref Simmler et al. (2013); cited from earlier work
T8 construct: expressed in transfected cells; host or cells: HEK 293 cells (membrane preparations)
T8 sequence (P31645 whole entry): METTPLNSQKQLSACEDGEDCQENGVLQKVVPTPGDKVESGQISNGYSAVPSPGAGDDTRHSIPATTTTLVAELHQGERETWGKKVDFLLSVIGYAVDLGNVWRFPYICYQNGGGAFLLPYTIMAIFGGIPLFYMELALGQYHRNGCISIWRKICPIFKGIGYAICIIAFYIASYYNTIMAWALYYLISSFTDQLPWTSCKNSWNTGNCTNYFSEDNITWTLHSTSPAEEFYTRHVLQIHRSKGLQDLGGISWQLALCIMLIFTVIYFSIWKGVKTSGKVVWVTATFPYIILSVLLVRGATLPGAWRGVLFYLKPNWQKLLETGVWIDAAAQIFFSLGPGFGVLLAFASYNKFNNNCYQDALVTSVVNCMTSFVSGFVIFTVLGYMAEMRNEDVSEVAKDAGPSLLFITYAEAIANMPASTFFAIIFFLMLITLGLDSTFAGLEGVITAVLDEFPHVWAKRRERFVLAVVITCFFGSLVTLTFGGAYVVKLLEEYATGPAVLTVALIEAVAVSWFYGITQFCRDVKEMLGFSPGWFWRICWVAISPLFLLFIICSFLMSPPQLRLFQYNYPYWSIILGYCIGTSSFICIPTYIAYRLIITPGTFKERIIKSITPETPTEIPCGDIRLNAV

T3 sequence (Q923Y9 whole entry): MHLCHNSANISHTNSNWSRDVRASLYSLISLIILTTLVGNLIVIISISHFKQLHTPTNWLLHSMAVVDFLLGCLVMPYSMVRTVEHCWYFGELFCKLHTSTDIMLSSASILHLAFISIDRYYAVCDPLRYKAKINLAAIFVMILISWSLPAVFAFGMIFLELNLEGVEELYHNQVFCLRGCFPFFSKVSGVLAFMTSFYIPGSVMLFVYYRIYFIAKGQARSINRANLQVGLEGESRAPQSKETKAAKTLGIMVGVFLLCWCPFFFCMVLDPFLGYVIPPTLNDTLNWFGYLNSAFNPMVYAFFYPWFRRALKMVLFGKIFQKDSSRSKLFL
T7 sequence (Q01959 whole entry): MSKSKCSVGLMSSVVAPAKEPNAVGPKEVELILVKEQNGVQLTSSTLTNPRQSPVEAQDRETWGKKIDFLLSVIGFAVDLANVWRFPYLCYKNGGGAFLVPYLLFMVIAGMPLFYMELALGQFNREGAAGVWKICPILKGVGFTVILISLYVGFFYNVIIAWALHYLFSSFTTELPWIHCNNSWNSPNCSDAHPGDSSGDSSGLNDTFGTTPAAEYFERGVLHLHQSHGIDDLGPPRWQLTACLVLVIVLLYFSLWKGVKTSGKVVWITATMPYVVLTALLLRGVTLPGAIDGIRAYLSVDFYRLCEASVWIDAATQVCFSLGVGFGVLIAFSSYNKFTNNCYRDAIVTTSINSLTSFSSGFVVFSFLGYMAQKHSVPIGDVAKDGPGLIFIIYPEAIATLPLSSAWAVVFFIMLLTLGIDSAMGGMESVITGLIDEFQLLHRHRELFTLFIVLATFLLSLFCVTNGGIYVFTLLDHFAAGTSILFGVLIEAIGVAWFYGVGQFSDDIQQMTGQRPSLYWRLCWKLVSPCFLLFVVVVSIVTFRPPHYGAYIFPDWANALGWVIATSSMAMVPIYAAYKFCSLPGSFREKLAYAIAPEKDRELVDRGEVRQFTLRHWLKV
T2 sequence (P14416 whole entry): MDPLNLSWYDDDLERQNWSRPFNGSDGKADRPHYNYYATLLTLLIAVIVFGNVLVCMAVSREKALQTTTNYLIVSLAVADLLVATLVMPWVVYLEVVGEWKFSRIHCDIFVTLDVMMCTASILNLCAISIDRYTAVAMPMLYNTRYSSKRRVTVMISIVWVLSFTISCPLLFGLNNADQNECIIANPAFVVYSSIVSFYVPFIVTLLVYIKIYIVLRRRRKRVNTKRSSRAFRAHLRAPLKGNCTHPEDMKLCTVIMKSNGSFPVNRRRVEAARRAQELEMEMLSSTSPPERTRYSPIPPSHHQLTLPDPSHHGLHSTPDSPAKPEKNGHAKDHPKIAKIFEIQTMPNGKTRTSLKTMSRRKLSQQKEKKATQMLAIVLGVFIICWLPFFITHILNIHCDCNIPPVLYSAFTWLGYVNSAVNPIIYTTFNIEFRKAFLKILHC
T5 sequence (Q923Y8 whole entry): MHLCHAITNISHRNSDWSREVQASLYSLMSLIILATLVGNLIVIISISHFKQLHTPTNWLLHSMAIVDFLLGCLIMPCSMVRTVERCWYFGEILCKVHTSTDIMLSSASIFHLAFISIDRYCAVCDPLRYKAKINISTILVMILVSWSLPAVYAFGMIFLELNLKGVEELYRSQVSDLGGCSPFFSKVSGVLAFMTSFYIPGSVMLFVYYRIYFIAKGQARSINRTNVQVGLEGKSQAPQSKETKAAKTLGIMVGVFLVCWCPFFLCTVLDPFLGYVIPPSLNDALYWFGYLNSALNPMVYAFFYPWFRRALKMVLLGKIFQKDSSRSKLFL
T6 sequence (P23975 whole entry): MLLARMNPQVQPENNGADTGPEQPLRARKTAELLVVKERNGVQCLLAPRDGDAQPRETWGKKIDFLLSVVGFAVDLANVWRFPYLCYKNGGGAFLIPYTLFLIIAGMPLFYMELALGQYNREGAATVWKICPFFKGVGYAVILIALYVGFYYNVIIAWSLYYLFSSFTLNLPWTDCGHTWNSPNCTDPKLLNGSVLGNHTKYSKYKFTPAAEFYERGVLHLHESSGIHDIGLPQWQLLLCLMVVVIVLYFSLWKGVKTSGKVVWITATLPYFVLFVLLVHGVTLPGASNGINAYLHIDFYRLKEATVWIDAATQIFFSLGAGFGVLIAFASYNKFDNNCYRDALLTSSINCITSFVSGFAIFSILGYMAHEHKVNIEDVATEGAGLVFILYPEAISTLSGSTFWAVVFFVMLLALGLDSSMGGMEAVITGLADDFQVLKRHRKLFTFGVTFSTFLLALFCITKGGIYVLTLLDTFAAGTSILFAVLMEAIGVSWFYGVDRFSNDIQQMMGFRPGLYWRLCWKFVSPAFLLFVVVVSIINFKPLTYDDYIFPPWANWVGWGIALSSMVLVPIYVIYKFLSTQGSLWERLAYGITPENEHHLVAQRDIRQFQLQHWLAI

For `CNC(C)Cc1ccc2c(c1)OCO2` (centres unmarked) [MDMA], the Ki (hα2A adrenergic receptor) is listed as over 5.1 µM, the Ki [1] is listed as over 6.3 µM and the Ki (rat TAAR1) is listed as 0.37 ± 0.12 µM. The Ki (hα1A adrenergic receptor) was over 8.7 µM, the Ki (mouse TAAR1) was 2.4 µM and the Ki (hNET) was over 9.7 µM. The Ki (hDAT) was over 8.5 µM and the Ki (hSERT) was over 7.5 µM.
